One data set has as its target T1, PTP1B (Homo sapiens, UniProt P18031).
T1 construct: in order to express 1-321 amino acid region encoding enzyme active domain of PTP1B; made in house; host or cells: E. coli BL21 DE3 pLysS
T1 sequence (P18031 1-321): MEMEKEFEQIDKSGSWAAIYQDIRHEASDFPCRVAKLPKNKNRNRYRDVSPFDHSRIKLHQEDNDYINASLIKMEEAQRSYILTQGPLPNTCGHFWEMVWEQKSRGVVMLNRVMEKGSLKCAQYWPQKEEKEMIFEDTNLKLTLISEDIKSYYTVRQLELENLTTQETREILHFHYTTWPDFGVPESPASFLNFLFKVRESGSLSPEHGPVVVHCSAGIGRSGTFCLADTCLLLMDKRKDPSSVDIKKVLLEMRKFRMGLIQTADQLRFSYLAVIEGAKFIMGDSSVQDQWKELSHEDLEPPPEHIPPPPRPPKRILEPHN
The data set can be described thus: Measurement of PTP1B Inhibitory Activity (dephosphorylation of p-nitrophenylphosphate, absorbance at 405 nm). It is filed as biochemical. The note with it: PTP1B enzyme active domain (1-321 amino acid, 6 histidine residues at C-terminal), pNPP substrate, pH 6.5, 37° C. for 1 hour. The procedure: Based on the sequence of human PTP-1B registered in Genbank (M31724) database, primer 1 and primer 2 were synthesized, and PTP1B cDNA was amplified from human skeletal muscle cDNA library (Clonetech, Inc. HL5002a) according to PCR method using these primers. The cycle of reactions at 98° C. for 10 seconds, at 58° C. for 30 seconds and at 72° C. for 90 seconds was repeated 35 cycles. The PCR reaction product (1322 bp) was cloned to pT7 Blue-T vector (Novagen, Inc.) to identify the base sequence.
Human PTP 1B cDNA (1322 bp) (100 ng) was amplified with primer 3 and primer 4 in order to express 1-321 amino acid region encoding enzyme active domain of PTP1B. The PCR reaction product (976 bp) was cloned to pT7 Blue-T vector (Novagen, Inc.) to identify the base sequence.
The pT7 Blue-T vector-human PTP1B cDNA (976 bp) was cleaved with restriction enzymes NdeI and SalI (Takara Shuzo Co., Ltd.) and subjected to electrophoresis using 0.7% agarose gel, and a 969 bp fragment was excised and purified. The fragment was introduced into pET32a (+) vector (Novagen, Inc.) cleaved with restriction enzymes NdeI and XhoI (Takara Shuzo Co., Ltd.), to constitute a vector pET32a (+)-human PTP1B cDNA (969 bp), which expresses PTP1B (321 amino acid) with 6 histidine residues binded to a C-terminal thereof under a control of T7 lac promotor.
E.coli BL21 DE3 pLysS (Novagen, Inc.) was transformed with the pET32a (+)-human PTP 1B cDNA (969 bp) to give an ampicillin (50 μg/ml) resistant bacterium. This was shake cultured at 37° C. using 5L of 2xYT medium (ampicillin (50 μg/ml)). When OD600nm reached to 0.5, IPTG (Isopropyl b-D-Thiogalactoside) was added to the culture medium so as to be 1 mM in order to induce the expression of protein, and this medium was further cultured at 37° C. overnight. The bacterium was collected by centrifugation (8000 rpm, 10 minutes, 4° C.).
The bacterium was suspended in lysis buffer (50 ml) (20 mM Tris HCl (pH 8.0), 0.5 M NaCl, 1 mM PMSF, 5 mM benzamidine, Lysozyme 5 mg) and crushed by sonication. To the supernatant after centrifuging (12000 rpm, 10 minutes, 4° C.) was added imidazole so as to be 50 mM and the mixture was mixed with His Bind resin (Novagen, Inc.) binded with Ni ion (4° C., overnight). The mixture was washed with 200 ml of (20 mM Tris HCl (pH 8.0), 0.5 M NaCl, 1 mM PMSF, 5 mM benzamidine, 50 mM imidazole), eluted with (20 mM Tris HCl (pH 8.0), 0.5 M NaCl, 1 mM PMSF, 5 mM benzamidine, 400 mM imidazole) and concentrated by centrifugation using Ultrafree-15 Biomax-50 (MILLIPORE Corp.) (11 mg/ml, 4ml). The purified protein (PTP1B) was identified by Western blotting method using SDS-PAGE, coomassie Blue stain and anti-PTP1B antibody (UBI Inc.).
The PTP1B inhibitory activity of the test compound was evaluated by measuring the ability of the test compound to dephosphorylate p-nitrophenylphosphate (pNPP) (a change of the absorbance at 405 nm).
To a buffer for measurement of the activity (0.1 M sodium acetate (pH 6.5), 1 mM EDTA, 10 mM DTT) (10 ml) was added PTP1B enzyme solution (2 μl) and the mixture was added to each well of a 96-well microtiter plate (100 μl each). A solution of the test compound in DMSO (10 μl) and 2 mM pNPP/the buffer for measurement of the activity (90 μl) were then added to each well, and the absorbance at 405 nm was measured. After keeping at 37° C. for 1 hour, the absorbance was measured again to evaluate a change of the absorbance. Regarding the change of the absorbance in the absence of the test compound as 100%, the concentration of the compound necessary for 50% inhibition (IC50 value) was calculated.

Drawing on US6911468B2, “Tyrosine phosphatase inhibitors” (Takeda Chemical Industries, Ltd., priority 2000, dated 2005), this text covers melting point and IC50 for eleven compounds.

Consider `CCCCCCCCCCNC(=O)c1cc(-c2ccc(O[C@H](Cc3ccccc3)C(=O)O)cc2)n(CCc2ccc(Br)cc2)c1C` [Example 118, (2R)-2-{4-[1-(4-Bromophenethyl)-4-(decylaminocarbonyl)-5-methyl-1H-pyrrol-2-yl]phenoxy}-3-phenylpropanoic acid], for which the melting point (as a rule, the temperature, or range, at which the solid turns liquid) lay in the range of 132 to 133 °C. Compound `O=C(O)/C=C/c1ccc(-c2cccn2-c2ccc(/C=C/C(=O)O)cc2)cc1` [Example 12, (E)-3-[4-(1-{4-[(E)-3-Hydroxy-3-oxo-1-propenyl]phenyl}-1H-pyrrol-2-yl)phenyl]-2-propenoic acid] returned a melting point of more than 300 °C. For the same compound, the IC50 – broadly, the concentration that gives 50% inhibition – against PTP1B came out at 3100 nM. In the case of `Cc1ccc(-c2ccc(O[C@H](Cc3ccccc3)C(=O)O)cc2)n1-c1ccc(C(F)(F)F)cc1` [Example 46, (2R)-2-{4-[5-Methyl-1-(4-trifluoromethylphenyl)-1H-pyrrol-2-yl]phenoxy}-3-phenylpropanoic acid], the IC50 against PTP1B came out at 400 nM.

In the case of `O=C(O)[C@@H](Cc1ccccc1)Oc1ccc(-c2cccn2-c2ccc(O[C@H](Cc3ccccc3)C(=O)O)cc2)cc1` [Example 16, (2R)-2-{4-[1-(4-{[(1R)-1-Carboxy-2-phenylethyl]oxy}phenyl)-1H-pyrrol-2-yl]phenoxy}-3-phenylpropanoic acid], the IC50 against PTP1B was 410 nM. With `O=C(O)[C@@H](Cc1ccccc1)Oc1ccc(-c2ccc(-c3ccccc3)n2-c2ccc(Br)cc2)cc1` [Example 22, (2R)-2-{4-[1-(4-Bromophenyl)-5-phenyl-1H-pyrrol-2-yl]phenoxy}-3-phenylpropanoic acid], the IC50 on PTP1B is 710 nM. For `Cc1cc(-c2ccc(O[C@H](Cc3ccccc3)C(=O)O)cc2)n(-c2ccc(Br)cc2)c1C` [Example 24, (2R)-2-{4-[1-(4-Bromophenyl)-4,5-dimethyl-1H-pyrrol-2-yl]phenoxy}-3-phenylpropanoic acid], the IC50 on PTP1B is 320 nM. As to `Cc1ccc(-c2ccc(O[C@H](Cc3ccccc3)C(=O)O)cc2)n1-c1ccc(Br)cc1` [Example 6, (2R)-2-{4-[1-(4-Bromophenyl)-5-methyl-1H-pyrrol-2-yl]phenoxy}-3-phenylpropanoic acid], the IC50 on PTP1B came to 500 nM. Compared with the last compound, the IC50 is about 1.6-fold higher.

In the case of `CCCCCCCCCCCn1c(C)ccc1-c1ccc(O[C@H](Cc2ccccc2)C(=O)O)cc1` [Example 64, (2R)-2-[4-(5-Methyl-1-undecyl-1H-pyrrol-2-yl)phenoxy]-3-phenylpropanoic acid], the midpoint of inhibition against PTP1B, the IC50, lay at 230 nM. This IC50 lies about 2.2-fold lower than the previous one. In the case of `O=C(O)CCc1ccc(-c2cccn2-c2ccc(CCC(=O)O)cc2)cc1` [Example 14, 3-(4-{1-[4-(2-Carboxyethyl)phenyl]-1H-pyrrol-2-yl}phenyl)propanoic acid], the IC50 against PTP1B turned out to be 5870 nM. On the same count and under the same terms, the figure for `CCCCCCCCCn1c(C)ccc1-c1ccc(O[C@H](Cc2ccccc2)C(=O)O)cc1` [Example 60, (2R)-2-[4-(5-Methyl-1-nonyl-1H-pyrrol-2-yl)phenoxy]-3-phenylpropanoic acid] is 360 nM; for `CCCc1cc(C)n(-c2ccc(Br)cc2)c1-c1ccc(O[C@H](Cc2ccccc2)C(=O)O)cc1` [Example 28, (2R)-2-{4-[1-(4-Bromophenyl)-5-methyl-3-propyl-1H-pyrrol-2-yl]phenoxy}-3-phenylpropanoic acid] it is 480 nM.
